Source: US20240270762A1, “PENICILLIN-BINDING PROTEIN INHIBITORS” (priority 2021, published 2024)
≈ marks a conversion by molar mass, not a printed value.

Experiments:
[1] = tested on: N. gonorrhoeae WHO M; assay: Liquid broth MIC in Fastidious broth; conditions: Neisseria gonorrhoeae, read-out: Minimum Inhibitory Concentration (MIC), N. gonorrhoeae WHO M
[2] = tested on: N. gonorrhoeae WHO L; assay: Liquid broth MIC in Fastidious broth; conditions: Neisseria gonorrhoeae, read-out: Minimum Inhibitory Concentration (MIC), N. gonorrhoeae WHO L
[3] = tested on: A. baumannii CDC-0036; assay: microbe, parasite or virus in culture; assay type: cell-based; conditions: Acinetobacter baumannii, CDC0036, read-out: MIC, A. baumannii CDC-0036
[4] = tested on: N. gonorrhoeae FA1090; assay: Liquid broth MIC in Fastidious broth; conditions: Neisseria gonorrhoeae, FA1090, read-out: Minimum Inhibitory Concentration (MIC), N. gonorrhoeae FA 1090
[5] = tested on: N. gonorrhoeae WHO Z; assay: Liquid broth MIC in Fastidious broth; conditions: Neisseria gonorrhoeae, read-out: Minimum Inhibitory Concentration (MIC), N. gonorrhoeae WHO Z
Experimental: Additional antibacterial testing of the series was performed in 8 reference strains of N. gonorrhoeae (ATCC 49226, FA1090, MS 11, WHO G, WHO L, WHO M, WHO K, WHO X, WHO Z, WHO Q, CDC-0197). ATCC 49226, FA1090, MS11, WHO G, WHO L, and WHO M produce wild type or wild-type like PBP2. WHO K, WHO X, WHO Z, WHO Q, and CDC-0197 produce mosaic PBP2. Liquid broth-based assays were used for antibacterial testing of PBP inhibitors in Neisseria gonorrhoeae. Briefly, cryo-preserved bacterial cultures of clinical strains were streaked for isolation on Chocolate Agar (72 g/L (2×) GC Agar Base (BD #228950) and 2% (2×) Hemoglobin was autoclaved at 121° C. for 20 minutes to sterilize. Once cooled to ˜50° C. the 2×GC Agar Base and 2× Hemoglobin solutions are combined and 1% IsoVitaleX Enrichment (BD #211876) was added to the solution). Strains were incubated at 36° C. and 5% CO2 to allow growth of colonies, 24 hours before inoculum preparation. 2-fold serial dilutions of test compounds were conducted in a 96 well plate with a final volume of 75 μL per well at 2-fold the final desired concentration in Fastidious broth (Remel #R07664). For preparation of assay inoculum, a direct suspension was prepared by aseptically swabbing 10-15 colonies from agar plates into culture tubes containing 2 mL of fresh sterile saline. After the dilution plates were set up, direct suspensions were then diluted in a cuvette containing sterile saline and the optical density was measured at 600 nm. Inocula were diluted such that 75 μL of this culture in Fastidious broth results in a starting bacterial concentration of 5×10^5 CFU/mL when added to the dilution plates. The plates were incubated for ˜24 hours at 36° C. and 5% CO2.

[6] = tested on: A. baumannii CDC-0045; assay: microbe, parasite or virus in culture; assay type: cell-based; conditions: Acinetobacter baumannii, CDC0045, read-out: MIC, A. baumannii CDC-0045
[7] = tested on: N. gonorrhoeae MS11; assay: Liquid broth MIC in Fastidious broth; conditions: Neisseria gonorrhoeae, MS11, read-out: Minimum Inhibitory Concentration (MIC), N. gonorrhoeae MS11
[8] = tested on: N. gonorrhoeae WHO K; assay: Liquid broth MIC in Fastidious broth; conditions: Neisseria gonorrhoeae, read-out: Minimum Inhibitory Concentration (MIC), N. gonorrhoeae WHO K
[9] = tested on: A. baumannii ATCC 19606; assay: microbe, parasite or virus in culture; assay type: cell-based; conditions: Acinetobacter baumannii, ATCC19606, read-out: MIC, A. baumannii ATCC 19606
[10] = tested on: A. baumannii 1258916; assay: microbe, parasite or virus in culture; assay type: cell-based, Acinetobacter baumannii; conditions: Acinetobacter baumannii, 1258916, read-out: MIC, A. baumannii 1258916
[11] = tested on: N. gonorrhoeae WHO Q; assay: Liquid broth MIC in Fastidious broth; conditions: Neisseria gonorrhoeae, read-out: Minimum Inhibitory Concentration (MIC), N. gonorrhoeae WHO Q
Experimental: Liquid broth-based assays were used for antibacterial testing of PBP inhibitors in Neisseria gonorrhoeae. Briefly, cryo-preserved bacterial cultures of clinical strains were streaked for isolation on Chocolate Agar (72 g/L (2×) GC Agar Base (BD #228950) and 2% (2×) Hemoglobin was autoclaved at 121° C. for 20 minutes to sterilize. Once cooled to ˜50° C. the 2×GC Agar Base and 2× Hemoglobin solutions are combined and 1% IsoVitaleX Enrichment (BD #211876) was added to the solution). Strains were incubated at 36° C. and 5% CO2 to allow growth of colonies, 24 hours before inoculum preparation. 2-fold serial dilutions of test compounds were conducted in a 96 well plate with a final volume of 75 μL per well at 2-fold the final desired concentration in Fastidious broth (Remel #R07664). For preparation of assay inoculum, a direct suspension was prepared by aseptically swabbing 10-15 colonies from agar plates into culture tubes containing 2 mL of fresh sterile saline. After the dilution plates were set up, direct suspensions were then diluted in a cuvette containing sterile saline and the optical density was measured at 600 nm. Inocula were diluted such that 75 μL of this culture in Fastidious broth results in a starting bacterial concentration of 5×10^5 CFU/mL when added to the dilution plates. The plates were incubated for ˜24 hours at 36° C. and 5% CO2.

[12] = tested on: P. aeruginosa (ΔmexAB-oprM); assay: Broth microdilution MIC in iron-depleted CAMHB (IDM); assay type: cell-based; conditions: Pseudomonas aeruginosa; iron-depleted CAMHB (IDM); […]; read-out: Minimum inhibitory concentration, P. aeruginosa ΔmexAB-oprM
[13] = tested on: P. aeruginosa ATCC 35151; assay: microbe, parasite or virus in culture; assay type: cell-based; conditions: Pseudomonas aeruginosa, ATCC35151, read-out: Minimum inhibitory concentration, P. aeruginosa ATCC 35151

Structure (SMILES)	MIC [1] [µg/mL]	MIC [2] [µg/mL]	MIC [3] [µg/mL]	MIC [4] [µg/mL]	MIC [5] [µg/mL]	MIC [6] [µg/mL]	MIC [7] [µg/mL]	MIC [8] [µg/mL]	MIC [9] [µg/mL]	MIC [10] [µg/mL]	MIC [11] [µg/mL]	MIC [12] [µg/mL]	MIC [13] [µg/mL]
O=C(CN1CCN(C(=O)NC(C(=O)N[C@H]2Cc3ccc(F)c(C(=O)O)c3OB2O)c2cc(F)c(O)c(O)c2Cl)C(=O)C1=O)Nc1cccc(O)c1 (stereo partly drawn) [Example 231, (3R)-3-(2-(2-chloro-5-fluoro-3,4-dihydroxyphenyl)-2-(4-(2-((3-hydroxyphenyl)amino)-2-oxoethyl)-2,3-dioxopiperazine-1-carboxamido)acetamido)-7-fluoro-2-hydroxy-3,4-dihydro-2H-benzo[e][1,2]oxaborinine-8-carboxylic acid]	4 to 8 (≈ 5.47 to 10.9 µM)	> 64	2 to 4 (≈ 2.73 to 5.47 µM)	1 to 2 (≈ 1.37 to 2.73 µM)	16 to 32 (≈ 21.9 to 43.7 µM)	2 to 4 (≈ 2.73 to 5.47 µM)	16 to 32 (≈ 21.9 to 43.7 µM)	16 to 32 (≈ 21.9 to 43.7 µM)	< 1	2 to 4 (≈ 2.73 to 5.47 µM)	16 to 32 (≈ 21.9 to 43.7 µM)	< 1	< 1
O=C(CN1CCN(C(=O)NC(C(=O)N[C@H]2Cc3ccc(F)c(C(=O)O)c3OB2O)c2cc(F)c(O)c(O)c2Cl)C(=O)C1=O)Nc1ccccc1 (stereo partly drawn) [Example 232, (3R)-3-(2-(2-chloro-5-fluoro-3,4-dihydroxyphenyl)-2-(2,3-dioxo-4-(2-oxo-2-(phenylamino)ethyl)piperazine-1-carboxamido)acetamido)-7-fluoro-2-hydroxy-3,4-dihydro-2H-benzo[e][1,2]oxaborinine-8-carboxylic acid]	4 to 8 (≈ 5.59 to 11.2 µM)	> 64	8 to 16 (≈ 11.2 to 22.4 µM)	1 to 2 (≈ 1.4 to 2.79 µM)	16 to 32 (≈ 22.4 to 44.7 µM)	8 to 16 (≈ 11.2 to 22.4 µM)	16 to 32 (≈ 22.4 to 44.7 µM)	> 64	2 to 4 (≈ 2.79 to 5.59 µM)	2 to 4 (≈ 2.79 to 5.59 µM)	> 64	< 1	< 1
O=C(CN1CCN(C(=O)NC(C(=O)N[C@H]2Cc3ccc(F)c(C(=O)O)c3OB2O)c2cc(F)c(O)c(O)c2Cl)C(=O)C1=O)Nc1ccncc1 (stereo partly drawn) [Example 233, (3R)-3-(2-(2-chloro-5-fluoro-3,4-dihydroxyphenyl)-2-(2,3-dioxo-4-(2-oxo-2-(pyridin-4-ylamino)ethyl)piperazine-1-carboxamido)acetamido)-7-fluoro-2-hydroxy-3,4-dihydro-2H-benzo[e][1,2]oxaborinine-8-carboxylic acid]	4 to 8 (≈ 5.58 to 11.2 µM)	> 64	2 to 4 (≈ 2.79 to 5.58 µM)	1 to 2 (≈ 1.4 to 2.79 µM)	16 to 32 (≈ 22.3 to 44.6 µM)	2 to 4 (≈ 2.79 to 5.58 µM)	16 to 32 (≈ 22.3 to 44.6 µM)	16 to 32 (≈ 22.3 to 44.6 µM)	< 1	< 1	16 to 32 (≈ 22.3 to 44.6 µM)	< 1	< 1
O=C(CN1CCN(C(=O)NC(C(=O)N[C@H]2Cc3ccc(F)c(C(=O)O)c3OB2O)c2cc(F)c(O)c(O)c2Cl)C(=O)C1=O)Nc1cccnc1 (stereo partly drawn) [Example 234, (3R)-3-(2-(2-chloro-5-fluoro-3,4-dihydroxyphenyl)-2-(2,3-dioxo-4-(2-oxo-2-(pyridin-3-ylamino)ethyl)piperazine-1-carboxamido)acetamido)-7-fluoro-2-hydroxy-3,4-dihydro-2H-benzo[e][1,2]oxaborinine-8-carboxylic acid]	4 to 8 (≈ 5.58 to 11.2 µM)	> 64	2 to 4 (≈ 2.79 to 5.58 µM)	1 to 2 (≈ 1.4 to 2.79 µM)	16 to 32 (≈ 22.3 to 44.6 µM)	< 1	16 to 32 (≈ 22.3 to 44.6 µM)	16 to 32 (≈ 22.3 to 44.6 µM)	< 1	< 1	16 to 32 (≈ 22.3 to 44.6 µM)	< 1	< 1
O=C(CN1CCN(C(=O)NC(C(=O)N[C@H]2Cc3ccc(F)c(C(=O)O)c3OB2O)c2cc(F)c(O)c(O)c2Cl)C(=O)C1=O)Nc1nccs1 (stereo partly drawn) [Example 235, (3R)-3-(2-(2-chloro-5-fluoro-3,4-dihydroxyphenyl)-2-(2,3-dioxo-4-(2-oxo-2-(thiazol-2-ylamino)ethyl)piperazine-1-carboxamido)acetamido)-7-fluoro-2-hydroxy-3,4-dihydro-2H-benzo[e][1,2]oxaborinine-8-carboxylic acid]	4 to 8 (≈ 5.53 to 11.1 µM)	> 64	2 to 4 (≈ 2.77 to 5.53 µM)	1 to 2 (≈ 1.38 to 2.77 µM)	16 to 32 (≈ 22.1 to 44.3 µM)	2 to 4 (≈ 2.77 to 5.53 µM)	16 to 32 (≈ 22.1 to 44.3 µM)	16 to 32 (≈ 22.1 to 44.3 µM)	< 1	2 to 4 (≈ 2.77 to 5.53 µM)	16 to 32 (≈ 22.1 to 44.3 µM)	< 1	< 1
O=C(CN1CCN(C(=O)NC(C(=O)N[C@H]2Cc3ccc(F)c(C(=O)O)c3OB2O)c2cc(F)c(O)c(O)c2Cl)C(=O)C1=O)NCc1cccc(O)c1 (stereo partly drawn) [Example 237, (3R)-3-(2-(2-chloro-5-fluoro-3,4-dihydroxyphenyl)-2-(4-(2-((3-hydroxybenzyl)amino)-2-oxoethyl)-2,3-dioxopiperazine-1-carboxamido)acetamido)-7-fluoro-2-hydroxy-3,4-dihydro-2H-benzo[e][1,2]oxaborinine-8-carboxylic acid]	4 to 8 (≈ 5.36 to 10.7 µM)	> 64	8 to 16 (≈ 10.7 to 21.5 µM)	1 to 2 (≈ 1.34 to 2.68 µM)	16 to 32 (≈ 21.5 to 42.9 µM)	8 to 16 (≈ 10.7 to 21.5 µM)	16 to 32 (≈ 21.5 to 42.9 µM)	> 64	< 1	2 to 4 (≈ 2.68 to 5.36 µM)	> 64	< 1	< 1
O=C(CN1CCN(C(=O)N[C@@H](C(=O)N[C@H]2Cc3ccc(F)c(C(=O)O)c3OB2O)c2cc(F)c(O)c(O)c2Cl)C(=O)C1=O)NCc1ccncc1 [Example 239, (R)-3-((R)-2-(2-chloro-5-fluoro-3,4-dihydroxyphenyl)-2-(2,3-dioxo-4-(2-oxo-2-((pyridin-4-ylmethyl)amino)ethyl)piperazine-1-carboxamido)acetamido)-7-fluoro-2-hydroxy-3,4-dihydro-2H-benzo[e][1,2]oxaborinine-8-carboxylic acid]	4 to 8 (≈ 5.47 to 10.9 µM)	> 64	2 to 4 (≈ 2.74 to 5.47 µM)	1 to 2 (≈ 1.37 to 2.74 µM)	16 to 32 (≈ 21.9 to 43.8 µM)	< 1	16 to 32 (≈ 21.9 to 43.8 µM)	> 64	< 1	< 1	> 64	< 1	< 1
O=C(CN1CCN(C(=O)NC(C(=O)N[C@H]2Cc3ccc(F)c(C(=O)O)c3OB2O)c2cc(F)c(O)c(O)c2Cl)C(=O)C1=O)NCc1cccnc1 (stereo partly drawn) [Example 240, (3R)-3-(2-(2-chloro-5-fluoro-3,4-dihydroxyphenyl)-2-(2,3-dioxo-4-(2-oxo-2-((pyridin-3-ylmethyl)amino)ethyl)piperazine-1-carboxamido)acetamido)-7-fluoro-2-hydroxy-3,4-dihydro-2H-benzo[e][1,2]oxaborinine-8-carboxylic acid]	4 to 8 (≈ 5.47 to 10.9 µM)	> 64	2 to 4 (≈ 2.74 to 5.47 µM)	1 to 2 (≈ 1.37 to 2.74 µM)	16 to 32 (≈ 21.9 to 43.8 µM)	2 to 4 (≈ 2.74 to 5.47 µM)	16 to 32 (≈ 21.9 to 43.8 µM)	> 64	< 1	< 1	16 to 32 (≈ 21.9 to 43.8 µM)	< 1	< 1
O=C(CN1CCN(C(=O)N[C@@H](C(=O)N[C@H]2Cc3ccc(F)c(C(=O)O)c3OB2O)c2cc(F)c(O)c(O)c2Cl)C(=O)C1=O)NCc1nccs1 [Example 241, (R)-3-((R)-2-(2-chloro-5-fluoro-3,4-dihydroxyphenyl)-2-(2,3-dioxo-4-(2-oxo-2-((thiazol-2-ylmethyl)amino)ethyl)piperazine-1-carboxamido)acetamido)-7-fluoro-2-hydroxy-3,4-dihydro-2H-benzo[e][1,2]oxaborinine-8-carboxylic acid]	4 to 8 (≈ 5.43 to 10.9 µM)	> 64	2 to 4 (≈ 2.71 to 5.43 µM)	1 to 2 (≈ 1.36 to 2.71 µM)	16 to 32 (≈ 21.7 to 43.4 µM)	2 to 4 (≈ 2.71 to 5.43 µM)	16 to 32 (≈ 21.7 to 43.4 µM)	16 to 32 (≈ 21.7 to 43.4 µM)	< 1	< 1	16 to 32 (≈ 21.7 to 43.4 µM)	< 1	< 1
O=C(NCCN1CCN(C(=O)NC(C(=O)N[C@H]2Cc3ccc(F)c(C(=O)O)c3OB2O)c2cc(F)c(O)c(O)c2Cl)C1=O)c1ccccc1 (stereo partly drawn) [Example 242, (3R)-3-(2-(3-(2-benzamidoethyl)-2-oxoimidazolidine-1-carboxamido)-2-(2-chloro-5-fluoro-3,4-dihydroxyphenyl)acetamido)-7-fluoro-2-hydroxy-3,4-dihydro-2H-benzo[e][1,2]oxaborinine-8-carboxylic acid]	16 to 32 (≈ 22.8 to 45.6 µM)	> 64	2 to 4 (≈ 2.85 to 5.7 µM)	1 to 2 (≈ 1.42 to 2.85 µM)	16 to 32 (≈ 22.8 to 45.6 µM)	< 1	16 to 32 (≈ 22.8 to 45.6 µM)	> 64	< 1	< 1	> 64	< 1	< 1
